Test results published in US20130058957A1, “DENDRITIC CELL IMMUNORECEPTOR AGONIST” (THE UNIVERSITY OF TOKYO, priority 2010, published 2013).

Tests used:
[1] = system: bone marrow cell-derived osteoclasts (OC formation); experiment: In vitro osteoclast formation, count of TRAP-positive multinucleate cells; assay type: cell-based, mouse; details: for OC differentiation in the presence of carbohydrate chain: carbohydrate chain 10 ng/mL, FIG. 8e; for OC formation (number of TRAP-positive MNCs): KS-II 100 ng/mL, FIGS. 8c, 8d
Procedure: Nonadherent bone marrow cells were seeded in a well plate (in a 24-well plate at 5×10^5 cells/well or in a […] at 3×10^6 cells/well) and were cultured in α-MEM (Gibco BRL) containing 10% FCS (manufactured by Biowest AG) and 10 ng/mL M-CSF (manufactured by R&D Systems, Inc.). After two days, nonadherent cells (including lymphocytes) were washed away, and remaining adherent cells were used as bone marrow-derived macrophages (BMMs). These osteoclast precursor cells (pOCs) were further cultured in the presence of 100 ng/mL of soluble RANKL (manufactured by PeproTech Inc. or Oriental Yeast Co., Ltd.) and 10 ng/mL of M-CSF to obtain osteoclasts. After three days, the osteoclasts were fixed in 10% neutral buffered formalin for three minutes, further kept in a mixture of ethanol/acetone (50:50 v:v) for 1 minute and subsequently incubated in a TRAP staining solution (Naphthol AS-MX phosphate: 5 mg, N,N-dimethylformamide: 0.5 mL, fast red violet LB salt: 30 mg, 0.1 M sodium acetate buffer (pH 5.0) containing 50 mM sodium tartrate: 50 mL) at room temperature. The number of TRAP-positive multinucleate cells (MNCs having three or more nuclei) was counted.
(§1) In order to investigate the influence of GM-CSF on osteoclast formation, mouse GM-CSF enzyme immunoassay (manufactured by PerSeptive Biosystems, Inc.), recombinant GM-CSF (manufactured by PeproTech Inc.), and anti-mouse GM-CSF neutralizing antibody (manufactured by R&D Systems, Inc.) were used. Furthermore, in the proliferation assay, pOCs were seeded (in a 96-well plate at 1×10^4 cells/well) and cultured in the presence of 10 ng/mL M-CSF only or M-CSF and 100 ng/mL RANKL or 20 ng/mL GM-CSF for three days. Subsequently, the cells were exposed to [^3H]TdR (0.5 μCi/mL) overnight.

[2] = target: T1, recombinant mouse DCIR (mDCIR) (Mus musculus, UniProt Q9QZ15); experiment: Carbohydrate chain binding assay by ELISA; details: KS-II from bovine articular cartilage immobilised on ELISA plate; FIG. 8b
T1 construct: containing an extracellular domain (99th to 238th residues) was expressed as an inclusion body in E. coli; made in house
T1 sequence (Q9QZ15 99-238): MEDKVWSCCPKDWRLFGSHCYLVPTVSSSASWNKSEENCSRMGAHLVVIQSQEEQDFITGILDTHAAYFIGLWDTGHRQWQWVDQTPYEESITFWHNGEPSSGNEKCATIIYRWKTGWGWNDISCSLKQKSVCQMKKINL
Procedure: Carbohydrate chain binding assay was performed in accordance with the method described in J. Bio. Chem., 2004, 279, 29043-29049. KS-II was diluted to 2 mg/mL with 100 mM sodium acetate (pH 5.5) and was oxidized with 2 mM sodium metaperiodate on ice for 1 hour to obtain a reactive aldehyde group. After further dilution, KS-II was incubated on a Covalink ELISA plate at 4° C. overnight and was reduced with 0.3% sodium cyanoborohydride at room temperature for 1.5 hours for covalent bonding. The plate was washed and was blocked with 2% bovine serum albumin (fraction V: manufactured by Sigma Corp.) at 37° C. for two hours. A recombinant mouse DCIR (mDCIR) containing an extracellular domain (99th to 238th residues) was expressed as an inclusion body in E. coli BL21 (DE3) pLysS using a pGMT7 plasmid and the […] was refolded by a typical dilution method. The mDCIR was incubated on the blocked and refolded plate at 4° C. overnight. Binding of protein was detected using anti-DCIR antibodies (a mixture of 320507 and 320511: manufactured by R&D Systems, Inc.) and HRP-linked rat IgG (manufactured by Zymed) in the presence of a TMB substrate (manufactured by Dako).

DCIR = target: T2, DCIR (Mus musculus, UniProt Q9QZ15); experiment: Immunoprecipitation/immunoblot analysis of DCIR activation in pOC lysate after KS-II stimulation; assay type: cell-based; details: immunoprecipitated with anti-DCIR antibody, FIG. 8f
T2 construct: immunoblot analysis for ITIM phosphorylation and SHP-1 recruitment in pOC lysate after KS-II stimulation; endogenous in cells; host or cells: mouse bone-marrow-derived osteoclast precursor cells (pOC)
T2 sequence (Q9QZ15 1-238): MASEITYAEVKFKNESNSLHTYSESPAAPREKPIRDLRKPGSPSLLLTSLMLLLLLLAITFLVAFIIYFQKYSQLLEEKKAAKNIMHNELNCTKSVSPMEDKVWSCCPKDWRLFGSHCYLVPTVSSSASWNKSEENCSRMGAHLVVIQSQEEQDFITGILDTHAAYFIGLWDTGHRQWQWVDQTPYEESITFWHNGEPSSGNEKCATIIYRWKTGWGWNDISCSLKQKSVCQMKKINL
Source text: In immunoprecipitation analysis, Protein G-Sepharose 4 Fast Flow (manufactured by GE Healthcare), mouse DCIR-specific antibody (320511: manufactured by R&D Systems, Inc.), phospho-Tyr (4G10: manufactured by Millipore), and SHP-1 (HG213: Upstate) were used. As the secondary antibody, a rabbit IgG-specific HRP-linked polyclonal antibody (manufactured by Cell Signaling) or a rat IgG-specific HRP-linked polyclonal antibody (manufactured by Zymed) was used.

calvarial OBs = experiment: Mineralization of calvarial osteoblasts (alizarin red and ALP staining of osteogenic culture); assay type: cell-based, mouse; details: FIG. 10f
Procedure: Primary osteoblasts were isolated from the calvaria of a new born mouse. The calvaria was washed with PBS and was digested in α-MEM containing 0.25% trypsin and 2 mg/mL collagenase P (manufactured by Roche) at 37° C. for 20 minutes. The supernatant was removed, and the cells were further digested for 60 minutes.
In order to induce osteogenesis, primary osteoblasts (in a 96-well plate at 2×10^4 cells/well, in a 24-well plate at 5×10^4 cells/well, or in a 6-well plate at 2×10^5 cells/well) were cultured to confluent, and the culture medium was replaced by a culture medium containing 10 mM β-glycerophosphate and 50 μg/mL ascorbic acid. The culture medium was replaced three times in 21 days.
The osteoblasts cultured for 21 days were stained with alizarin red, von Kossa, and alkaline phosphatase (ALP).
The culture solution was removed from the osteoblasts cultured for 21 days by using PBS, and the osteoblasts were fixed with 3.7% formalin solution (Nacalai Tesque, Inc.) for 10 minutes. […]
Primary osteoblasts were cultured in a 96-well plate for 21 days and were measured with a TRACP & ALP Assay Kit (TaKaRa Bio Inc.). […] The reaction was terminated with 50 μL of a reaction terminating solution, and subsequently the activity was measured with MICROPLATE READER MTP-300 (CORONA ELECTRIC Co., Ltd.) at OD405.

OPG/RANKL ratio = experiment: Real-time RT-PCR of OPG/RANKL ratio in calvarial OBs; assay type: cell-based; details: WT mouse-derived OBs only (not KO); FIGS. 10k, 10l
Procedure: Semi-quantitative RT-PCR and real-time RT-PCR were slightly modified, but basically performed in accordance with the methods described in Nature Medicine, 2008, vol. 14, no. 2: 176-180 and Arthritis Res. Ther., 2006, 8, R100, 1-13. Total RNA was prepared by a typical acid guanidinium thiocyanate-phenol-chloroform method or a method using Sepasol-RNA I Super (manufactured by Nacalai Tesque, Inc.). The prepared RNA was reverse transcribed with SuperScript III First-Strand Synthesis System for RT-PCR (manufactured by Invitrogen) to prepare cDNA.
The real-time RT-PCR was performed using primers shown in Table 1, SYBR Green qPCR kit (manufactured by Invitrogen), and iCycler (manufactured by Bio-Rad Laboratories, Inc.).

TNF-α = TNF-α production in CpG-containing culture, measured by ELISA; assay type: cell-based; details: CpG 1 μM, 12 hours; KS-II 10 ng/mL, versus CpG alone; FIG. 12
Procedure: The anti-DCIR antibodies derived from hybridomas prepared in Example 4 were evaluated for binding ability to DCIR. Since DCIR has been reported to participate in suppression of immunoreaction (Nature Medicine, 2008, vol. 14, no. 2: 176-180), the DCIR-binding ability of each antibody was evaluated using expression of tumor necrosis factor α (TNF-α), which is an inflammatory cytokine, as a standard.
The hybridoma prepared in Example 4 was cultured in a culture medium containing CpG (concentration: 1 μM) for 12 hours, and the culture supernatant was collected. Separately, CpG ODN 1668 (Operon Technologies, Inc.) was cultured in the same medium or a medium further containing keratan sulfate (KS-II: 10 ng/mL), and the culture supernatant was collected. As a control, the cells were cultured in a CpG-free culture medium (NT). The TNF-α amount in each supernatant was measured by ELISA.

[3] = system: osteoclast precursor cells (pOCs); experiment: Osteoclast differentiation with hybridoma supernatant or KS-II, count of TRAP-positive osteoclasts; assay type: cell-based; details: KS-II 10 ng/mL; M-CSF 10 ng/mL + RANKL 100 ng/mL, three days; versus untreated; FIG. 13
Procedure: Furthermore, activities of the above-mentioned antibodies on osteoclast formation were evaluated using the activity of keratan sulfate as an indicator. Nonadherent bone marrow cells were seeded in a well plate (a 96-well plate at 1×10^5 cells/well) and were cultured in α-MEM (Gibco BRL) containing 10% FCS (manufactured by Biowest AG) and 10 ng/mL M-CSF (manufactured by R&D Systems, Inc.). After two days, the nonadherent cells (including lymphocytes) were washed away, and the remaining adherent cells were used as bone marrow-derived macrophages (BMMs). These osteoclast precursor cells (pOCs) were further cultured in the presence of 100 ng/mL of soluble RANKL (manufactured by PeproTech Inc. or Oriental Yeast Co., Ltd.) and 10 ng/mL of M-CSF to obtain osteoclasts. During the culturing, the hybridoma supernatant (one-tenth amount) or keratan sulfate (KS-II: 10 ng/mL) was added to the culture medium. After three days, the cells were collected and stained with TRAP. The number of TRAP-positive osteoclasts (having three or more nuclei) was counted. Untreated cells were used as a control (NT).

[4] = system: osteoclast precursor cells (pOCs); experiment: Proliferation assay using pOC after GM-CSF stimulation; assay type: cell-based, mouse; details: Dcir−/− pOCs; M-CSF 10 ng/mL and GM-CSF 20 ng/mL
Procedure: as §1

## CC(=O)N[C@H]1C(O)O[C@H](CO)[C@@H](O[C@@H]2O[C@H](CO)[C@H](O)[C@H](O)[C@H]2O)[C@@H]1O (some centres unmarked) [LacNAc, N-acetyllactosamine]
[1]
  OC differentiation in the presence of carbohydrate chain: not influenced

## chondroitin sulfate A
[1]
  OC differentiation in the presence of carbohydrate chain: not influenced

## dermatan sulfate
[1]
  OC differentiation in the presence of carbohydrate chain: not influenced

## keratan sulfate-II [KS-II]
[2]
  binding of recombinant mouse DCIR to KS-II: concentration-dependently binds
[1]; Dcir−/− cell culture
  OC formation (number of TRAP-positive MNCs): did not inhibit
[1]; wild-type (WT) bone marrow cell culture
  OC formation (number of TRAP-positive MNCs): considerably inhibited
DCIR
  phosphorylation of immunoreceptor tyrosine-based inhibitory motif (ITIM) in DCIR: concentration-dependently accelerates
  recruitment of tyrosine phosphatase SHP-1 in DCIR: concentration-dependently accelerates
Calvarial OBs; Dcir−/− OBs
  mineralization of OBs: does not suppress
Calvarial OBs; WT OBs
  mineralization of OBs: suppresses
OPG/RANKL ratio
  OPG/RANKL ratio: decreases
TNF-α
  TNF-α production: suppressed
[3]
  differentiation to osteoclast (TRAP-positive, three or more nuclei): suppressed

B1: GM-CSF: recombinant mouse GM-CSF (manufactured by PeproTech Inc.) (protein, UniProt P01587 18-141, looked up)
Granulocyte-macrophage …: APTRSPITVTRPWKHVEAIKEALNLLDDMPVTLNEEVEVVSNEFSFKKLTCVQTRLKIFEQGLRGNFTKLKGALNMTASYYQTYCPPTPETDCETQVTTYADFIDSLKTFLTDIPFECKKPGQK
[4]
  proliferation of pOCs: significantly increased
